This note sets out measurements from EPA's ToxValDB 9.5 (doi:10.2903/j.efsa.2018.5140).

“And” between values parts separate entries of the source, which are not always exact repeats. Equal entries are not always repeated.

The test system of one series is Colinus virginianus. The conditions noted are these: for LD50: acute, oral, mortality.
A further series relates to Aphidius rhopalosiphi. Put plainly: LR50; higher = less toxic. The note with it: acute; mortality.
The test system of a further series is Oncorhynchus mykiss. The conditions noted are these: acute; duration: 96 hours; mortality.
For a further series, the system named is Folsomia candida. The note with it: chronic/long-term; duration: 28 days; reproduction.
In the next series the test system is Apis mellifera. The note with it: acute, mortality.
For a further series, the system named is Neomysis kadiakensis. The conditions noted are these: chronic/long-term; duration: 28 days; reproduction.
The next series relates to Canidae. The conditions noted are these: oral, Dog Other, hematological.
In the next series the test system is Pimephales promelas. The note with it: chronic/long-term; duration: 28 days.

Regarding `COC(=O)[C@@]12Cc3cc(Cl)ccc3C1=NN(C(=O)Nc1ccc(OC(F)(F)F)cc1)CO2`, in the series on Rattus norvegicus (acute, M, mortality), the LC50 was 52 mg/kg. The LD50 in the series on Rattus norvegicus (acute, oral, F, mortality) is 39 mg/kg; in the series on Colinus virginianus it was 1750 mg/kg.
In general, NOAEL refers to the highest dose or exposure tested at which no adverse effect was seen. As a reminder, the LOAEL is the lowest dose or exposure tested at which an adverse effect was seen. `COC(=O)N(C(=O)N1CO[C@@]2(C(=O)OC)Cc3cc(Cl)ccc3C2=N1)c1ccc(OC(F)(F)F)cc1` [Indoxacarb] displayed an LR50 with Aphidius rhopalosiphi of 5.1 g/ha. The same compound displayed an LC50 in the series on Oncorhynchus mykiss greater than 0.17 mg/L. Besides, the NOEC amounted to 1 mg/kg with Folsomia candida, 0.0138 mg/L in the series on Neomysis kadiakensis and 0.0675 mg/L in the series on Pimephales promelas. In addition, the LD50 in the series with Apis mellifera (dermal) was 0.0682 µg/piece; in the series with Apis mellifera (oral, unspecified), 0.232 µg/piece; in the series on Rattus norvegicus (acute, oral, mortality), 146 mg/kg-day; in the series with Colinus virginianus, 73.5 mg/kg-day. For the same compound, the NOAEL in the series with Rattus norvegicus (chronic) is 0.6 mg/kg-day; with Rattus norvegicus (chronic, duration: 2 years, hematological) it was 1.04 mg/kg-day; in the series with Rattus norvegicus (reproduction developmental, body weight), 0.5 mg/kg-day; in the series on Rattus norvegicus (subchronic, duration: 90 days, oral, hematological), 0.68 mg/kg-day and 0.99 mg/kg-day; in the series on Rattus norvegicus (subchronic, oral, hematological) it was 0.76 mg/kg-day; in the series with Colinus virginianus (reproduction developmental) it was 56.8 mg/kg-day. Moreover, the LOAEL in the series on Canidae (chronic, duration: 1 years) amounted to 1.1 mg/kg-day; with Canidae (subchronic, duration: 90 days) it was 1 mg/kg-day.
